Patent publication US20240390350A1, “PHENYL CORE COMPOUNDS AS MGLU5 NEGATIVE ALLOSTERIC MODULATORS AND METHODS OF MAKING AND USING THE SAME” (Vanderbilt University, priority 2021, published 2024)
pIC50: −log10 of the molar value.

Target: T1, human mGlu5 (Homo sapiens, UniProt P41594)
T1 construct: expressed in transfected cells; host or cells: HEK 293A
Experiment: mGlu5 negative allosteric modulator Ca2+ flux assay in HEK 293A cells (Table 1)
Assay type: cell-based
Details: HEK 293A cells stably expressing mGlu5; Ca2+ flux (Fluo-4); decrease of glutamate EC80 response; read-out: hmGlu5 NAM IC50

T1 sequence (P41594 21-1212): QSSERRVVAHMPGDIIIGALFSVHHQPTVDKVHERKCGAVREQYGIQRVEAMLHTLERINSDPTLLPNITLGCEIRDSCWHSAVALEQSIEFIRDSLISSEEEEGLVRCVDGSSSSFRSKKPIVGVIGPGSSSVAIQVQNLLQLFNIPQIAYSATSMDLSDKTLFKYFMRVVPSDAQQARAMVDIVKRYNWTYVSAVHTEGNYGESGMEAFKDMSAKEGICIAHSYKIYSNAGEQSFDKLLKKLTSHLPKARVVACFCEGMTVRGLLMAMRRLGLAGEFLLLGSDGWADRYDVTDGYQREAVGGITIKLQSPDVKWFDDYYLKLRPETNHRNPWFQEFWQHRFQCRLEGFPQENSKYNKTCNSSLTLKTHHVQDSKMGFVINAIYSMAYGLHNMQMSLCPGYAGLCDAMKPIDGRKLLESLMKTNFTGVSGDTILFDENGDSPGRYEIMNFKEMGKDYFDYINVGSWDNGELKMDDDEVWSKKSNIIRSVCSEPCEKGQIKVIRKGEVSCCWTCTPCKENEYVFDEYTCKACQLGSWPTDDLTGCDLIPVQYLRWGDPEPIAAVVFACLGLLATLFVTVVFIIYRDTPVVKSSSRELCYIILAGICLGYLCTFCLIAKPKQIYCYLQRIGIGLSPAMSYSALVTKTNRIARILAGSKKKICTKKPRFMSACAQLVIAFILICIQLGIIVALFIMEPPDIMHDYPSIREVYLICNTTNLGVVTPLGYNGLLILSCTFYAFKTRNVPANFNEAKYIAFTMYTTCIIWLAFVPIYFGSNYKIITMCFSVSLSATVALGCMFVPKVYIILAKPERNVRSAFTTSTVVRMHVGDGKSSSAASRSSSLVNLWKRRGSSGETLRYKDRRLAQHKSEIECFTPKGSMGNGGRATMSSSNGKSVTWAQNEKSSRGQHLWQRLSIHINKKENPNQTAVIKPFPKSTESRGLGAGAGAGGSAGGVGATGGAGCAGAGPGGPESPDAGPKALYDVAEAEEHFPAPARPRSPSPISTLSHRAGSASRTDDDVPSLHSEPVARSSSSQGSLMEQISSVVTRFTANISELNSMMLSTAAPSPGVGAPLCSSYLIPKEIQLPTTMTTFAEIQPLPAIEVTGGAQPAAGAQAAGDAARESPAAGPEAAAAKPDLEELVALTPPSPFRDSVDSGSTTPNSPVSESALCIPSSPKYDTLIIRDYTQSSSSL

SMILES | pIC50
Cn1nccc1-c1cc(F)c(F)c(C(=O)Nc2ccc(F)cn2)c1 [Compound 32, 2,3-difluoro-N-(5-fluoropyridin-2-yl)-5-(1-methyl-1H-pyrazol-5-yl)benzamide] | 5.31
Cc1ccncc1-c1cc(C(=O)Nc2ccc(F)cn2)cc(F)c1F [Compound 29, 3,4-difluoro-N-(5-fluoropyridin-2-yl)-5-(4-methylpyridin-3-yl)benzamide] | 5.65
Cc1csc(NC(=O)c2cc(-c3cnccc3C)cc(C(F)(F)F)c2)n1 [Compound 18, 3-(4-methylpyridin-3-yl)-N-(4-methylthiazol-2-yl)-5-(trifluoromethyl)benzamide] | < 5.00
Cc1ccncc1-c1cc(Cl)cc(C(=O)Nc2ccc(F)cn2)c1 [Compound 17, 3-chloro-N-(5-fluoropyridin-2-yl)-5-(4-methylpyridin-3-yl)benzamide] | 5.73
Cc1csc(NC(=O)c2cc(C#N)cc(-c3cnccc3C)c2)n1 [Compound 22, 3-cyano-5-(4-methylpyridin-3-yl)-N-(4-methylthiazol-2-yl)benzamide] | 6.70
Cc1cccc(NC(=O)c2cc(Cl)cc(-c3cnccc3C)c2)n1 [Compound 16, 3-chloro-N-(6-methylpyridin-2-yl)-5-(4-methylpyridin-3-yl)benzamide] | 6.98
Cc1ccncc1-c1cc(Cl)cc(C(=O)Nc2ccccn2)c1 [Compound 15, 3-chloro-5-(4-methylpyridin-3-yl)-N-(pyridin-2-yl)benzamide] | 6.48
Cc1csc(NC(=O)c2cc(-c3cnccc3C)ccc2F)n1 [Compound 1, 2-fluoro-5-(4-methylpyridin-3-yl)-N-(4-methylthiazol-2-yl)benzamide] | 6.13
Cc1csc(NC(=O)c2cc(Cl)cc(-c3cnccc3C)c2)n1 [Compound 14, 3-chloro-5-(4-methylpyridin-3-yl)-N-(4-methylthiazol-2-yl)benzamide] | 6.20
Cn1cncc1-c1cc(F)cc(C(=O)Nc2ccc(F)cn2)c1 [Compound 27, 3-fluoro-N-(5-fluoropyridin-2-yl)-5-(1-methyl-1H-imidazol-5-yl)benzamide] | < 5.00
Cc1cccc(NC(=O)c2cc(C#N)cc(-c3cnccc3C)c2)n1 [Compound 24, 3-cyano-N-(6-methylpyridin-2-yl)-5-(4-methylpyridin-3-yl)benzamide] | 6.56
Cc1cc(C(=O)Nc2nc(C)cs2)cc(-c2cnccc2C)c1 [Compound 7, 3-Methyl-5-(4-methylpyridin-3-yl)-N-(4-methylthiazol-2-yl)benzamidecarboxamide] | 6.90
Cc1cccc(NC(=O)c2cc(F)c(F)c(-c3cnccc3C)c2)n1 [Compound 30, 3,4-difluoro-N-(6-methylpyridin-2-yl)-5-(4-methylpyridin-3-yl)benzamide] | 7.00
Cc1csc(NC(=O)c2cc(-c3cnccc3C)cc(F)c2F)n1 [Compound 2, 2,3-difluoro-5-(4-methylpyridin-3-yl)-N-(4-methylthiazol-2-yl)benzamide] | 6.87
Cc1nn(C)c(C)c1-c1cc(F)cc(C(=O)Nc2ccc(F)cn2)c1 [Compound 28, 3-fluoro-N-(5-fluoropyridin-2-yl)-5-(1,3,5-trimethyl-1H-pyrazol-4-yl)benzamide] | < 5.00
Cc1ccncc1-c1cc(F)c(F)c(C(=O)Nc2ccccn2)c1 [Compound 8, 2,3-difluoro-5-(4-methylpyridin-3-yl)-N-(pyridin-2-yl)benzamide] | < 5.00
Cc1ccncc1-c1cc(C#N)cc(C(=O)Nc2ccccn2)c1 [Compound 23, 3-cyano-5-(4-methylpyridin-3-yl)-N-(pyridin-2-yl)benzamide] | 5.92
Cc1ccncc1-c1cc(C(=O)Nc2ccc(F)cn2)cc(C(F)(F)F)c1 [Compound 21, N-(5-fluoropyridin-2-yl)-3-(4-methylpyridin-3-yl)-5-(trifluoromethyl)benzamide] | 5.47
Cc1csc(NC(=O)c2cc(F)cc(-c3cnccc3C)c2)n1 [Compound 3, 3-fluoro-5-(4-methylpyridin-3-yl)-N-(4-methylthiazol-2-yl)benzamide] | 6.27
Cc1ccncc1-c1ccc(F)c(C(=O)Nc2ccccn2)c1 [Compound 11, 2-fluoro-5-(4-methylpyridin-3-yl)-N-(pyridin-2-yl)benzamide] | 5.72
Cc1ccncc1-c1cc(C#N)cc(C(=O)Nc2ccc(F)cn2)c1 [Compound 25, 3-cyano-N-(5-fluoropyridin-2-yl)-5-(4-methylpyridin-3-yl)benzamide] | 6.00
Cc1ccncc1-c1cc(F)c(F)c(C(=O)Nc2ccc(F)cn2)c1 [Compound 9, 2,3-difluoro-N-(5-fluoropyridin-2-yl)-5-(4-methylpyridin-3-yl)benzamide] | 5.99
Cc1nn(C)cc1-c1ccc(F)c(C(=O)Nc2ccc(F)cn2)c1 [Compound 26, 5-(1,3-dimethyl-1H-pyrazol-4-yl)-2-fluoro-N-(5-fluoropyridin-2-yl)benzamide] | < 5.00
Cc1cc(C(=O)Nc2ccc(F)cn2)cc(-c2cnccc2C)c1 [Compound 6, N-(5-fluoropyridin-2-yl)-3-methyl-5-(4-methylpyridin-3-yl)benzamide] | 6.43
Cc1ccncc1-c1ccc(F)c(C(=O)Nc2ccc(F)cn2)c1 [Compound 12, 2-fluoro-N-(5-fluoropyridin-2-yl)-5-(4-methylpyridin-3-yl)benzamide] | 5.97
Cc1cc(C(=O)Nc2cccc(C)n2)cc(-c2cnccc2C)c1 [Compound 4, 3-methyl-N-(6-methylpyridin-2-yl)-5-(4-methylpyridin-3-yl)benzamide] | 7.37
Cc1cccc(NC(=O)c2cc(-c3cnccc3C)cc(C(F)(F)F)c2)n1 [Compound 20, N-(6-methylpyridin-2-yl)-3-(4-methylpyridin-3-yl)-5-(trifluoromethyl)benzamide] | 5.94
Cc1ccncc1-c1cc(C(=O)Nc2ccccn2)cc(C(F)(F)F)c1 [Compound 19, 3-(4-methylpyridin-3-yl)-N-(pyridin-2-yl)-5-(trifluoromethyl)benzamide] | 5.59
Cc1cccc(NC(=O)c2cc(-c3cnccc3C)cc(F)c2F)n1 [Compound 10, 2,3-difluoro-N-(6-methylpyridin-2-yl)-5-(4-methylpyridin-3-yl)benzamide] | 6.49
Cc1cc(C(=O)Nc2ccccn2)cc(-c2cnccc2C)c1 [Compound 5, 3-Methyl-5-(4-methylpyridin-3-yl)-N-(pyridin-2-yl)benzamide] | 7.02

Other lines, results leading:

pIC50 | SMILES
6.98 | Cc1cccc(NC(=O)c2cc(-c3cnccc3C)c(F)cc2F)n1 [Compound 47, 2,4-difluoro-N-(6-methylpyridin-2-yl)-5-(4-methylpyridin-3-yl)benzamide]
6.36 | Cc1csc(NC(=O)c2cc(F)c(F)c(-c3cnccc3C)c2)n1 [Compound 51, 3,4-difluoro-5-(4-methylpyridin-3-yl)-N-(4-methylthiazol-2-yl)benzamide]
5.35 | Cc1cccc(NC(=O)c2cc(F)c(F)c(-c3ccnn3C)c2)n1 [Compound 43, 3,4-difluoro-5-(1-methyl-1H-pyrazol-5-yl)-N-(6-methylpyridin-2-yl)benzamide]
5.45 | Cc1cccc(NC(=O)c2cc(F)c(F)c(-c3cc(C(F)(F)F)nn3C)c2)n1 [Compound 44, 3,4-difluoro-5-(1-methyl-3-(trifluoromethyl)-1H-pyrazol-5-yl)-N-(6-methylpyridin-2-yl)benzamide]
6.39 | Cc1ccncc1-c1cc(C(=O)Nc2ccccn2)cc(F)c1F [Compound 49, 3,4-difluoro-5-(4-methylpyridin-3-yl)-N-(pyridin-2-yl)benzamide]
5.38 | Cc1ncc(-c2cc(F)c(F)c(C(=O)Nc3ccc(F)cn3)c2)s1 [Compound 35, 2,3-difluoro-N-(5-fluoropyridin-2-yl)-5-(2-methylthiazol-5-yl)benzamide]
5.91 | Cc1cccc(NC(=O)c2cc(F)c(F)c(-c3cnc(C)s3)c2)n1 [Compound 45, 3,4-difluoro-N-(6-methylpyridin-2-yl)-5-(2-methylthiazol-5-yl)benzamide]
6.71 | O=C(Nc1cccc(Cl)n1)c1cc(-c2cncc(F)c2)cc(F)c1F [Compound 42, N-(6-chloropyridin-2-yl)-2,3-difluoro-5-(5-fluoropyridin-3-yl)benzamide]
< 5.00 | Cn1nc(C(F)(F)F)cc1-c1cc(F)c(F)c(C(=O)Nc2ccc(F)cn2)c1 [Compound 36, 2,3-difluoro-N-(5-fluoropyridin-2-yl)-5-(1-methyl-3-(trifluoromethyl)-1H-pyrazol-5-yl)benzamide]
7.03 | Cc1csc(NC(=O)c2cc(-c3cncc(F)c3)cc(F)c2F)n1 [Compound 40, 2,3-difluoro-5-(5-fluoropyridin-3-yl)-N-(4-methylthiazol-2-yl)benzamide]
5.46 | Cc1nn(C)cc1-c1cc(F)c(F)c(C(=O)Nc2ccc(F)cn2)c1 [Compound 33, 5-(1,3-dimethyl-1H-pyrazol-4-yl)-2,3-difluoro-N-(5-fluoropyridin-2-yl)benzamide]
6.79 | O=C(Nc1ccc(F)cn1)c1cc(-c2cncc(F)c2)cc(F)c1F [Compound 34, 2,3-difluoro-N-(5-fluoropyridin-2-yl)-5-(5-fluoropyridin-3-yl)benzamide]
6.01 | Cc1ccncc1-c1cc(C(=O)Nc2ccc(Cl)cn2)c(F)cc1F [Compound 39, N-(5-chloropyridin-2-yl)-2,4-difluoro-5-(4-methylpyridin-3-yl)benzamide]
7.03 | Cc1cccc(NC(=O)c2cc(F)c(F)c(-c3cncc(F)c3)c2)n1 [Compound 46, 3,4-difluoro-5-(5-fluoropyridin-3-yl)-N-(6-methylpyridin-2-yl)benzamide]
6.36 | Cc1csc(NC(=O)c2cc(-c3cnccc3C)c(F)cc2F)n1 [Compound 37, 2,4-difluoro-5-(4-methylpyridin-3-yl)-N-(4-methylthiazol-2-yl)benzamide]
7.10 | Cc1ccncc1-c1cc(C(=O)Nc2cccc(Cl)n2)cc(F)c1F [Compound 50, N-(6-chloropyridin-2-yl)-3,4-difluoro-5-(4-methylpyridin-3-yl)benzamide]
